The values below come from patent publication US20170246144A1, “METHOD OF PREVENTING OR TREATING SPINOCEREBELLAR ATAXIA BY ADMINISTRATING SILIBININ” (National Taiwan Normal University, priority 2016, published 2017).

Where two headings read alike, the source gives them in different places.

Assay [1] concerns SH-SY5Y cells. The experiment in a line: Annexin V-FITC/PI flow cytometry, apoptosis induced by MSG. In kind it is cell-based, Human. The following applies: 15 μM, 100 mM MSG, 24 hours. The protocol:
1×10^6 SH-SY5Y cells were treated with 100 mM MSG and 15 μM SB or 10 μM MK801 (MK) for 24 hours. Cells were stained with Annexin-V/PI and the apoptosis was measured with a flow cytometry.
In order to detect the effects of silibinin in inhibiting the apoptosis induced by glutamate in SH-SY5Y cells. The cells were measured by flow cytometry using Annexin V-FITC/propidium iodide (PI) double-labeling method.
SH-SY5Y cells were seeded in dish and were treated with 100 mM MSG in combination of 15 μM silibinin or 10 μM MK801 for 24 hours. The cells were then trypsinized and collected by centrifugation at 2,000 rpm for […] followed by double-staining with Annexin V-FITC and PI. Stained cells were analyzed with a flow cytometry (FACS Sorter, Becton, Dickinson and Company). 10,000 cells were recorded in each experiment.
Background: A flow cytometer gives signals particle by particle.

For assay [2], the system named is SH-SY5Y cells. Nature of the assay: Western blotting of cleaved caspase-9, cleaved caspase-3 and cleaved PARP after MSG. In kind it is cell-based, Human. As to conditions: 15 μM, 100 mM MSG, 24 hours. The protocol: FIGS. 5A-5D show the effects of SB on the levels of cleaved caspase-9, cleaved caspase-3, and cleaved poly(ADP-ribose) polymerase (PARP) in SH-SY5Y cells treated with MSG FIG. 5A: The levels of […] in 1×10^6 SH-SY5Y cells were measured by western blotting, wherein the control group (Ctrl) was untreated SH-SY5Y cells or the cells were treated with 100 mM MSG, 100 mM MSG+15 μM SB or 100 mM MSG+10 μM MK801 (MK) for 24 hours. Actin was used as a loading control. FIGS. 5B-5D show the quantification results measured by western blotting. Data were the mean values of three independent experiments.
Caspase belongs to cysteine protease family which is typically closely related to apoptosis, wherein the activation of caspase-9, caspase-3 and […] PARP is associated with delayed excitotoxicity damages. Therefore, western blotting was performed to analyze whether silibinin can protect SH-SY5Y cells from death via caspase-dependent apoptosis pathway in the present embodiment.
(Immunoblotting shows a protein as a band on a membrane.)

Assay [3] has as its system nTBP/Q79-EGFP cells. Nature of the assay: MTT viability of Dox-induced nTBP/Q79-EGFP cells. Format: cell-based, Human. As to conditions: 15 μM, Dox induction 5 days. The protocol: (§1) FIGS. 8A-8C show the effects of SB on improving the viability of nTBP/Q79-EGFP cells and inhibiting the expression levels of cleaved caspase-9, cleaved caspase-3, and cleaved PARP in nTBP/Q79-EGFP cells induced by doxycycline (Dox). FIG. 8A: The viabilities of 1.0×10^6 nTBP/Q36-EGFP cells and nTBP/Q79-EGFP cells which were pretreated with 15 μM SB for 1 hour followed by the induction of Dox for 1, 3, and 5 days were measured by MTT assay. FIG. 8B: 1.0×10^6 nTBP/Q36-EGFP cells and nTBP/Q79-EGFP cells were pretreated with 15 μM SB for 1 hour followed by the induction of Dox for 5 days. The levels of cleaved caspase-9, cleaved caspase-3, and cleaved PARP were detected by western blotting. Actin was used as a loading control. […] The results were shown as mean±SD, n=3, *p<0.05, comparing to the Dox group.
Human neuroblastoma SH-SY5Y cell line was obtained from American Type Culture Collection (ATCC). nTBP/Q36-EGFP cells (poly-Q of TATA-binding protein contains 36 glutamines in SH-SY5Y cells) and nTBP/Q79-EGFP cells (poly-Q of TATA-binding protein contains 79 glutamines in SH-SY5Y cells) were kindly supplied by Dr. Guey-Jen Lee-Chen, National Taiwan Normal University (NTNU). […]
The cell viability was measured using MTT colorimetric assay as mentioned previously. […]

Assay [4] deals with nTBP/Q79-EGFP cells. Nature of the assay: Western blotting of caspase family proteins in Dox-induced nTBP/Q79-EGFP cells. Format: cell-based. As to conditions: Homo sapiens, 120 h, Dox 5 days. The method, then: as §1
Western blotting was used to determine whether silibinin can inhibit cell death due to the expression of nTBP/Q79-EGFP via caspase-dependent apoptosis pathway.
nTBP/Q36-EGFP cells and nTBP/Q79-EGFP cells were treated with 15 μM silibinin for 1 hour followed by the treatment of 10 μg/mL Dox and RA for 5 days.

In the next assay the test system is SCA17 transgenic mice. The experiment in a line: Footprint pattern analysis in SCA17 transgenic mice. Format: in vivo. As to conditions: 4.5 mg/kg i.p. once every 2 days. The protocol: FIGS. 10A-10F show the effects of SB on the body weight and motor performance in SCA17 transgenic mice. Mice were grouped into wild type-saline (WT-saline), transgenic-saline (TG-saline), and transgenic-SB treatment (TG-SB) groups. Mice were injected intraperitoneally with saline or SB (4.5 mg/kg) at 8-week old once every 2 days. […] FIG. 10E and FIG. 10F show respectively the stride length of front-limb/hind-limb at the right-side and the left-side. The values represent means±SD, n=6. *p<0.05, comparing to the TG-saline group.
Since the SCA17 mice were 8 weeks old, the mice were injected intraperitoneally with silibinin in saline at 4.5 mg/kg once every 2 days, designated as TG_SB group. The mice in TG_saline group were injected with same amount of saline.
In addition, footprint pattern analysis was conducted to observe any abnormity of the gait of the mice. Such test was conducted widely to determine motor skill, coordination and balance. The hindfeet and forefeet of the mouse were coated with red and blue nontoxic paint respectively, and the mouse was allowed to walk along a runway on a fresh sheet of white paper. The distance between the centers of the hind footprint and the fore footprint, the length of the step, and the parallel distance were measured for a continuous 6 steps, excluding the steps in the beginning and at the end. The test was performed once every half month.

One may read the inhibition as how much of the control response was suppressed. Regarding `COc1cc(C2Oc3cc([C@H]4Oc5cc(O)cc(O)c5C(=O)[C@@H]4O)ccc3OC2CO)ccc1O` (stereo partly shown) [silibinin], the “apoptosis (apoptotic cells)” value in the assay on SH-SY5Y cells [1] was found to be 9.04%. In addition, in the assay on SH-SY5Y cells [2], the “reduction of cleaved PARP level, compared to the increased level with MSG only” value came to 52%; the “reduction of cleaved-caspase-3 level, compared to the increased level with MSG only” value came out at 83%; the “reduction of cleaved-caspase-9 level, compared to the increased level with MSG only” value is recorded as 125%. In addition, in the assay on nTBP/Q79-EGFP cells [3], the “increase of cell viability of nTBP/Q79-EGFP cells” value is reported as “approximately 20%”. In addition, in the assay with nTBP/Q79-EGFP cells [4] (read-out: inhibition of cleaved-PARP level), the inhibition at 15 µM is ~44%. The inhibition at 15 µM in the assay on nTBP/Q79-EGFP cells [4] (read-out: inhibition of cleaved-caspase-3 level) is ~100%. Further, in the assay on nTBP/Q79-EGFP cells [4] (read-out: inhibition of cleaved-caspase-9 level), the inhibition at 15 µM is ~88%. Moreover, in the assay on SCA17 transgenic mice, the “overlapped length of footprints, left-paw” value was 0.8±0.1 cm and the “overlapped length of footprints, right-paw” value is listed as 1.1±0.1 cm.
